Data taken from patent publication US11608341B2, “Substituted tetrahydropyrazolo[3,4-d]pyrimidines and tetrahydropyrazolo[4,3-d]pyrimidines as C5A receptor modulators” (Idorsia Pharmaceuticals Ltd., priority 2018, dated 2023).

target: T1, C5AR1 (Homo sapiens, UniProt P21730); test: In vitro assay: antagonism of C5a-induced beta-arrestin recruitment (PathHunter) in CHO-K1 C5AR1 beta-arrestin cell line; format: cell-based; details: antagonistic activity, 1-10 nM C5a agonist, geometric mean where several measurements, read-out: C5aR IC50
T1 construct: host or cells: CHO-K1
T1 sequence (P21730 1-350): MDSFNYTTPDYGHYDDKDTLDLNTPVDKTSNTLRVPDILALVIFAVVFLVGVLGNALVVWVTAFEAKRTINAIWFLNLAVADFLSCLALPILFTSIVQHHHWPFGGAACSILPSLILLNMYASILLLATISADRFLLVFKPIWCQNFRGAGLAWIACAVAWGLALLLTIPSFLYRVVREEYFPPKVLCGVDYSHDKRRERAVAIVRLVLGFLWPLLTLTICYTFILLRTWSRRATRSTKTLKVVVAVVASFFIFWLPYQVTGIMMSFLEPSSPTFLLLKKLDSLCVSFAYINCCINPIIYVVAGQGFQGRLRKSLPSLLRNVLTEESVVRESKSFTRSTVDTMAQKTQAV
Protocol: 5 μl Antagonist at 6-fold end concentration or DMSO control is added to assay medium and subsequently 5 μl 1-10 nM C5a agonist at 6 fold end concentration. Cells are centrifuged for 1 min at 1000 rpm and incubated for 1.5 hour in at 37° C. Plates are equilibrated at room temperature for several minutes before adding 12 μl/well Detection Reagent (PathHunter Detection Kit, DiscoverX, Cat #93-0001). Plates are centrifuged for 1 min at 1000 rpm and incubated for 45 minutes at RT before being measured on a Fluostar Optima, BMG Labtech. IC50 values are calculated from a serial dilution range of antagonist using inhouse software and given in nmol/l.
The calculated IC50 values may fluctuate depending on the daily cellular assay performance. Fluctuations of this kind are known to those skilled in the art. Average IC50 values from several measurements are given as geometric mean values.

SMILES	IC50 [nM]
COc1nccc(Cl)c1N1CCC(N2C(=O)N(Cc3ccccc3C(F)(F)F)c3nn(C)cc3C2C)CC1 (single isomer, unassigned) [Example 377]	552
CC1c2nn(C3CC3)cc2N(Cc2ccccc2C(F)(F)F)C(=O)N1C1CCN(c2c(F)cccc2C(F)F)CC1 (single isomer, unassigned) [Example 330]	1420
CCn1cc2c(n1)N(Cc1ccccc1C(F)(F)F)C(=O)N(C1CCN(c3c(C)cccc3F)CC1)C2 [Example 169]	8
Cc1cccc(F)c1N1CCC(N2Cc3cn(C[C@@H]4CCN4C(=O)OC(C)C)nc3N(Cc3ccccc3C(F)(F)F)C2=O)CC1 [Example 125]	14
COc1ncnc(OC)c1N1CCC(N2Cc3cn(C)nc3N(Cc3ccccc3C(F)(F)F)C2=O)CC1 [Example 100]	339
Cc1cccc(F)c1N1CCC(N2C(=O)N(Cc3ccccc3C(F)(F)F)c3cn(C4CC4)nc3C2C)CC1 (single isomer, unassigned) [Example 266]	356
Cc1cccc(F)c1N1CCC(N2Cc3nn(C4CC4)cc3N(Cc3ccccc3C(F)(F)F)C2=O)CC1 [Example 175]	14
Cc1cccc(F)c1N1CCC(N2C(=O)N(Cc3ccccc3C3CC3)c3c[nH]nc3C2C)CC1 (single isomer, unassigned) [Example 275]	20
COc1nccc(C(F)F)c1N1CCC(N2C(=O)N(Cc3ccccc3C(F)(F)F)c3nn(C4CCCCO4)cc3C2C)CC1 (stereo not drawn) [Example 343]	57
Cc1cccc(F)c1N1CCC(N2Cc3nn(CC4(F)CC4)cc3N(Cc3ccccc3C(F)(F)F)C2=O)CC1 [Example 184]	9
Cc1cccc(F)c1N1CCC(N2C(=O)N(Cc3ccccc3C(F)(F)F)c3cnn(CC(C)(F)F)c3C2C)CC1 (single isomer, unassigned) [Example 256]	570
Cc1cccc(F)c1N1CCC(N2C(=O)N(Cc3ccccc3C(F)(F)F)c3cn(CC(C)(F)F)nc3C2C)CC1 (single isomer, unassigned) [Example 253]	16
Cc1cccc(F)c1N1CCC(N2Cc3nn(C)cc3N(Cc3ccccc3C(C)C)C2=O)CC1 [Example 260]	40
COC1CN(CCn2cc3c(n2)N(Cc2ccccc2C(F)(F)F)C(=O)N(C2CCN(c4c(C)cccc4F)CC2)C3)C1 [Example 34]	22
Cc1cccc(F)c1N1CCC(N2Cc3cn(C(C)(C)C(N)=O)nc3N(Cc3ccccc3C(F)(F)F)C2=O)CC1 [Example 84]	74
Cc1cccc(F)c1N1CCC(N2Cc3nn(C)cc3N(C(C)c3ccccc3C(F)(F)F)C2=O)CC1 (single isomer, unassigned) [Example 262]	472
Cc1nnc(N2CC(n3cc4c(n3)N(Cc3ccccc3C(F)(F)F)C(=O)N(C3CCN(c5c(C)cccc5F)CC3)C4)C2)o1 [Example 142]	32
Cc1cccc(F)c1N1CCC(N2Cc3nn(C)cc3N(C(C)c3ccccc3C(F)(F)F)C2=O)CC1 (single isomer, unassigned) [Example 261]	580
Cc1cccc(F)c1N1CCC(N2C(=O)N(Cc3ccccc3C3CC3)c3cn(CC(C)(F)F)nc3C2C)CC1 (single isomer, unassigned) [Example 276]	491

SMILES	IC50 [nM]
Cc1cccc(F)c1N1CCC(N2Cc3cn(C(C)(C)C)nc3N(Cc3ccccc3C(F)(F)F)C2=O)CC1 [Example 173]	15
Cc1nn(C)c(N2CCC(N3Cc4cn(C)nc4N(Cc4ccccc4C(F)(F)F)C3=O)CC2)c1C#N [Example 229]	550
CC(C)c1ccccc1N1CCC(N2Cc3cn(C)nc3N(Cc3ccccc3C(F)(F)F)C2=O)CC1 [Example 257]	9
Cc1cccc(F)c1N1CCC(N2Cc3cn(CC(C)(C)N)nc3N(Cc3ccccc3C(F)(F)F)C2=O)CC1 [Example 118]	578
Cc1cccc(F)c1N1CCC(N2Cc3cn(C)nc3N(Cc3nc(N(C)C)ccc3C(F)(F)F)C2=O)CC1 [Example 50]	85
COc1nccc(C)c1N1CCC(N2C(=O)N(Cc3ccccc3C(F)(F)F)c3nn(C4CC4)cc3C2C)CC1 (single isomer, unassigned) [Example 344]	8
Cc1cccc(F)c1N1CCC(N2Cc3cn(CCN(C)C4CC4)nc3N(Cc3ccccc3C(F)(F)F)C2=O)CC1 [Example 73]	17
Cc1cccc(F)c1N1CCC(N2Cc3cn(C4CCN(C(=O)OC(C)(C)C)C4)nc3N(Cc3ccccc3C(F)(F)F)C2=O)CC1 (stereo not drawn) [Example 93]	17
COc1nccc(C)c1N1CCC(N2C(=O)N(Cc3ncccc3C(F)(F)F)c3nn(C)cc3C2C)CC1 (single isomer, unassigned) [Example 356]	5
Cc1cccc(F)c1N1CCC(N2Cc3nn(CC4CC4)cc3N(Cc3ccccc3C(F)(F)F)C2=O)CC1 [Example 178]	16
COc1nccc(C)c1N1CCC(N2Cc3nn(C)nc3N(Cc3ncccc3C(F)(F)F)C2=O)CC1 [Example 146]	32
Cc1cccc(F)c1N1CCC(N2Cc3cn(C[C@H]4CC(F)(F)CN4)nc3N(Cc3ccccc3C(F)(F)F)C2=O)CC1 [Example 111]	29
CC(=O)NCCn1cc2c(n1)N(Cc1ccccc1C(F)(F)F)C(=O)N(C1CCN(c3c(C)cccc3F)CC1)C2 [Example 66]	152
Cc1cccc(F)c1N1CCC(N2Cc3cn(C4CN(C(=O)OCC(C)C)C4)nc3N(Cc3ccccc3C(F)(F)F)C2=O)CC1 [Example 132]	8
Cc1cccc(F)c1N1CCC(N2Cc3cn(C)nc3N(Cc3ccccc3OC(C)C)C2=O)CC1 [Example 251]	9
Cc1cccc(F)c1N1CCC(N2C(=O)N(Cc3ccccc3C(F)(F)F)c3n[nH]cc3C2C)CC1 (single isomer, unassigned) [Example 316]	9
Cc1cccc(F)c1N1CCC(N2Cc3cn(CC(C)F)nc3N(Cc3ccccc3C(F)(F)F)C2=O)CC1 (single isomer, unassigned) [Example 185]	10
COc1nccc(C)c1N1CCC(N2C(=O)N(Cc3ccccc3C(F)(F)F)c3c[nH]nc3C2C)CC1 (single isomer, unassigned) [Example 295]	25
Cc1cccc(F)c1N1CCC(N2Cc3nn(CC4(F)CC4)cc3N(Cc3ncccc3C(F)(F)F)C2=O)CC1 [Example 208]	3

SMILES	IC50 [nM]
COc1nccc(C)c1N1CCC(N2Cc3nn(C4CC4)cc3N(Cc3ccccc3C(F)(F)F)C2=O)CC1 [Example 223]	32
COc1nccc(C)c1N1CCC(N2Cc3cn(C)nc3N(Cc3ncccc3C(F)(F)F)C2=O)CC1 [Example 138]	11
CC(=O)N1CCC(n2cc3c(n2)N(Cc2ccccc2C(F)(F)F)C(=O)N(C2CCN(c4c(C)cccc4F)CC2)C3)C1 (stereo not drawn) [Example 113]	110
Cc1cccc(F)c1N1CCC(N2Cc3cn(C)nc3N(Cc3nc(Cl)ccc3C(F)(F)F)C2=O)CC1 [Example 35]	9
CC1c2cn(C3CCCCO3)nc2N(Cc2ccccc2C(F)(F)F)C(=O)N1C1CCN(c2c(F)cccc2Cl)CC1 (stereo not drawn) [Example 342]	24
COc1nccc(C)c1N1CCC(N2Cc3c[nH]nc3N(Cc3ccccc3C(F)(F)F)C2=O)CC1 [Example 197]	17
COc1nccc(C)c1N1CCC(N2Cc3cn(CC(C)(F)F)nc3N(Cc3ccccc3C(F)(F)F)C2=O)CC1 [Example 205]	8
Cc1cccc(F)c1N1CCC(N2Cc3cn(CC4(C)COC4)nc3N(Cc3ccccc3C(F)(F)F)C2=O)CC1 [Example 166]	12
CC1c2cn(C3CC3)nc2N(Cc2ccccc2C(F)(F)F)C(=O)N1C1CCN(c2c(F)cccc2Cl)CC1 (single isomer, unassigned) [Example 335]	12
Cn1cc2c(n1)CN(C1CCN(c3c(F)cccc3C(F)F)CC1)C(=O)N2Cc1ccccc1C(F)(F)F [Example 301]	69
Cc1cccc(F)c1N1CCC(N2Cc3cn(C)nc3N(Cc3ccccc3Cl)C2=O)CC1 [Example 233]	10
CC1c2cn(C)nc2N(Cc2ccccc2C(F)(F)F)C(=O)N1C1CCN(c2c(F)cccc2Cl)CC1 (single isomer, unassigned) [Example 320]	325
CCOc1ccccc1CN1C(=O)N(C2CCN(c3c(C)cccc3F)CC2)Cc2cn(C)nc21 [Example 252]	9
Cc1cccc(F)c1N1CCC(N2Cc3cn(C4CN(c5nnc(C(C)C)o5)C4)nc3N(Cc3ccccc3C(F)(F)F)C2=O)CC1 [Example 143]	17
CC(c1ccccc1C(F)(F)F)N1C(=O)N(C2CCN(c3c(F)cccc3F)CC2)Cc2cn(C)nc21 (single isomer, unassigned) [Example 290]	351
Cc1cccc(F)c1N1CCCC(N2Cc3cn(C)nc3N(Cc3ccccc3C(F)(F)F)C2=O)CC1 (single isomer, unassigned) [Example 226]	24
Cc1cccc(F)c1N1CCC(N2Cc3cn(C)nc3N(Cc3cncnc3C(C)C)C2=O)CC1 [Example 249]	69
COc1nccc(C)c1N1CCC(N2Cc3n[nH]cc3N(Cc3ccccc3C(F)(F)F)C2=O)CC1 [Example 218]	12
COc1nccc(C)c1N1CCC(N2Cc3cn(C)nc3N(C(C)c3ccccc3C(F)(F)F)C2=O)CC1 (single isomer, unassigned) [Example 287]	37
